# No end group written: not given here.
# What was measured:
# [1] = test system: HeLa cells; test: Cell viability assay (resazurin); type: cell-based; conditions: 24 h; for cytotoxicity (cell viability): CF‐labeled peptides, n = 3 (Figure 3A); for concentration up to which peptide is not toxic (cell viability): unlabeled peptides in serum-free medium, untreated control = 100%, n = 3 (Figure 2A)
# Method: (§1) HeLa (13,000), MDA‐MB‐231 (26,000), HFF‐1 (16,000) cells, mEGFP‐HRas (18,000), and SW480 and SW620 (15,000) were seeded into a 96‐well plate. Cells were treated with suitable peptide concentrations diluted in the corresponding serum‐free culture medium. After 24 h incubation under standard growth conditions, the cells were washed once with PBS. The positive control was treated for 10 min with 70% EtOH. To test the viability, cells were treated with a resazurin solution (In Vitro Toxicology Assay Kit, resazurin based, Sigma) and incubated for a further 1–2 h. The product resorufin was measured at 595 nm (λex = 550 nm) on an infinite M200 plate reader (Tecan) and normalized to the untreated negative control cells.
# [2] = test system: MDA‐MB‐231; test: Cell viability assay (resazurin); type: cell-based; conditions: MDA‐MB‐231, 24 h, CF‐labeled peptides, n = 3 (Figure 3B)
# Method: as §1
# [3] = test system: HFF‐1 cells; test: Cell viability assay (resazurin); type: cell-based, human; conditions: HFF‐1, 24 h, CF‐labeled peptides, n = 3 (Figure 3C)
# Method: as §1
# [4] = test system: HeLa cells; test: Cellular uptake by flow cytometry; type: cell-based; conditions: 30 min, serum-free medium, 37 °C, flow cytometry
# Method: (§2) HeLa (90,000), MDA‐MB‐231 (120,000), and HFF‐1 (125,000) cells were seeded into a 24‐well plate. Cells were treated with the desired concentration of CF‐labeled peptide diluted in the appropriate serum‐free medium for 30 min at 37 °C and 5% CO2. Afterward, cells were washed once with PBS, detached from the plate using indicator‐free trypsin/EDTA and resuspended in indicator‐free culture medium. The cell mixture was measured on the Guava easyCyte flow cytometer (Merck) using the GRN‐B (520/30) detector.
# CMA was synthesized and kindly provided by Azizi et al.^[ [33] ^] Cells were either treated with 20 μM CMA diluted in serum‐free media or 0.1% DMSO diluted in serum‐free media for 6 h at 37 °C with 5% CO2. Next, cells were washed once with serum‐free medium and 5 μM CF‐labeled peptides diluted in serum‐free medium were incubated for 30 min. Control cells were only treated with dimethylsulfoxide (DMSO) or 20 μM CMA.
# For the preincubation assay, cells were either treated with 5 μM DC‐2 diluted in serum‐free medium or only serum‐free medium for 30 min at 37 °C and 5% CO2. Afterward, cells were washed once with serum‐free medium and treated with 5 μM CF‐labeled DC‐2 for 30 min at 37 °C and 5% CO2.
# To block cell surface thiols, cells were incubated with either serum‐free medium or 1.2 mM 5,5′‐dithiobis‐(2‐nitrobenzoic acid) (Ellman's reagent, DTNB) diluted in serum‐free medium for 5 min. Next, untreated cells were treated with 1 μM of CF‐labeled DC‐2 or DC‐2dis diluted in serum‐free medium and DTNB‐pretreated cells with 1 μM of CF‐labeled DC‐2 or DC‐2dis and 1.2 mM DTNB in serum‐free medium for 30 min at 37 °C and 5% CO2 as described by Aubry et al.^[ [47] ^]
# [5] = molecular target: T1, human 6His‐ZDHHC7 (Homo sapiens, UniProt Q9NXF8); test: In vitro palmitoylation assay (LC‐MS); type: biochemical; conditions: 50 μM CF‐labeled peptide, 37 °C, LC‐MS (Figure 4); for palmitoylation in presence of ZDHHC7: 100 nM ZDHHC7, 100 μM palmitoyl‐CoA, pH 7.0, 2 h; for palmitoylation in absence of ZDHHC7 (auto‐palmitoylation): 100 μM palmitoyl‐CoA, no ZDHHC7, pH 7.0, 2 h
# T1 construct: 6His; purchased Proteintech
# T1 sequence (Q9NXF8 1-308): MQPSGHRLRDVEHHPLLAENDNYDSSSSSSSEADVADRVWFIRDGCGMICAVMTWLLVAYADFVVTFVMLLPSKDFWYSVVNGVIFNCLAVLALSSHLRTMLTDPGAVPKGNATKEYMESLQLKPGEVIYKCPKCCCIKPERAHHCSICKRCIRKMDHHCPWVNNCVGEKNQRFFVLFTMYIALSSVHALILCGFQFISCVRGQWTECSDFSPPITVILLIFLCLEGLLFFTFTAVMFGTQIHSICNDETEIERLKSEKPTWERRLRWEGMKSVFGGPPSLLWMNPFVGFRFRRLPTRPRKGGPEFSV
# Method: The 50 μM CF‐labeled peptides were incubated with 100 nM human 6His‐ZDHHC7 (Proteintech) and 100 μM palmitoyl‐CoA (Santa Cruz Biotechnology) in reaction buffer (50 mM HEPES, 150 mM NaCl, 1 mM EDTA, 1 mM (tris(2‐carboxyethyl)phosphine) (TCEP), 0.3 mM DDM, pH 7.0) for 2 h at 37 °C. Control reactions without ZDHHC7 or palm‐CoA were incubated with the appropriate volume of reaction buffer. Afterward, the reaction was centrifuged for 5 min at 13000 rpm. The precipitate was dissolved in DMSO/ACN (3:2, v/v). To enrich the peptide from the supernatant, C8 ZipTips were used. All samples were analyzed on the LC MS‐8060 triple quadrupole ESI‐MS (Shimadzu). The fluorescence intensity (λex = 493 nm, λem = 517 nm) of the samples was measured on an EC 160/2 NUCLEODUR 300‐5 C18 ec column using linear gradients from 20% to 70 % ACN in ddH2O + 0.1% FA over 7 min.
# [6] = test system: MDA‐MB‐231; test: Cellular uptake by flow cytometry; type: cell-based; conditions: MDA‐MB‐231, 30 min, 5 μM CF‐labeled peptides, serum-free medium, 37 °C, n ≥ 3 (Figure 3E)
# Method: as §2
# [7] = test system: HFF‐1 cells; test: Cellular uptake by flow cytometry; type: cell-based, human; conditions: HFF‐1, 30 min, 5 μM CF‐labeled peptides, serum-free medium, 37 °C, n ≥ 3 (Figure 3F)
# Method: as §2
# [8] = test system: HeLa cells; test: Live‐cell fluorescence imaging of peptide uptake; type: cell-based; conditions: 30 min, 5 μM CF‐labeled peptides, confocal laser scanning microscopy (Figure 3G)
# Method: HeLa (40,000), MDA‐MB‐231 (30,000), or HFF1 (55,000) cells were seeded into an 8‐well ibidi. Cells were treated for 30 min with 5 μM of CF‐labeled peptide diluted in the appropriate serum‐free media. The cell nuclei were stained with the Hoechst 33342 nuclear dye for the last 10 min of the total incubation time. Afterward, cells were washed three to four times using serum‐free medium and finally, medium containing FBS was added for the microscopy. Live fluorescence microscopy analyses were performed on the LSM 980 with Airyscan 2 Inverse Confocal Laser Scanning Microscope (Carl Zeiss) on a 63X Plan‐Apochromat oil objective (NA 1.4, Zeiss) at 37 °C and 5% CO2 or on the BZ‐X810 (Keyence) using a 60X Plan‐Apochromat oil objective (NA 1.4, Keyence). Images were cropped and processed using Fiji.
# Hela cells (15,000) were seeded into a 96-well plate. Cells were treated with suitable peptide concentrations diluted in the corresponding serum-free culture medium. After 1 h peptide incubation under standard growth conditions, the positive control was either directly treated with lysis solution or the supernatant was exchanged for serum-free culture medium and the plate was incubated for further 5 h under growing conditions. The CytoTox-ONE™ Reagent was added and incubated at RT for 10 minutes. Finally, the Stop Solution was added and the fluorescence was measured at 595 nm (λex = 550 nm) on an infinite M200 plate reader (Tecan) and normalized to the positive control cells.
# Red blood cells (RBCs) were washed three times in PBS by centrifug ing at 4 °C and 3,000 x g for 5 min and diluted to 5% in PBS. The desired peptide concentrations diluted in PBS were added into a 96-well plate. Next, 5% RBCs in PBS were added into the wells and incubated for 24 h at 37 °C and 5% CO2. As a positive control, RBCs were mixed with 10% Triton X-100 in PBS. […] Lastly, the absorption (λ=560 nm) was measured on the infinite M200 plate reader (Tecan). For the evaluation, the measured absorption of the Triton-X-100 treatment was set to a hemolysis rate […]
# [9] = test system: MCF‐10 A breast spheroid; test: Confocal time‐lapse imaging of spheroids; type: cell-based, human; conditions: 10‐day‐old MCF‐10 A spheroids, 10 μM CF‐labeled peptide, imaged every 45 s for 20 min, n ≥ 2 (Figure 7)
# Method: Spheroids from single MCF10‐A cells were generated for 10 days as described in ref. [66]. For further analyses, spheroids were isolated from EHS matrix through incubation in 2 mL ice‐cold cell recovery solution (BD Biosciences) for 30 min (4 °C). Next, spheroids were washed with fresh EGF‐free medium and individually picked under a stereo microscope for seeding onto 35 mm cell culture dishes with microscopic glass bottoms (Cover Slip, 24 × 24 mm, #1.5 HP, Menzel‐Gläser). Spheroids adhered to glass substrates for 15 min (RT) and were subsequently covered with 0.9 mL fresh EGF‐free growth medium.
# Live‐cell imaging was performed at 37 °C and 5% CO2 (cell incubator XL, Zeiss, Germany) with an inverse confocal laser scanning microscope (LSM880 with Airyscan detector) that used a 40x LD C‐Apochromat water immersion objective (NA 1.1, Zeiss). Before addition of peptides, control images were taken. Subsequently, peptide was added to a final concentration of 10 μM and spheroids immediately imaged every 45 s for 20 min. The observed plane was at the equatorial plane of a spheroid, where the diameter was largest. Images were taken with Fast Airyscan and subsequent processing using the ZEN 2.3 black software (Zeiss). Z‐stacks were taken right after the time series in 1 μm steps with the same microscopic settings.
# [10] = 5 μM CF‐labeled peptides, n ≥ 3 (Figure 3D, 5C)
# [11] = 10 μM CF‐labeled peptides, n = 3 (Figure 2B)
Substance,cytotoxicity (cell viability) [1],concentration up to which peptide is not toxic (cell viability) [1] [µM],cytotoxicity (cell viability) [2],cytotoxicity (cell viability) [3],"cellular uptake (in words) [4, 10]","cellular uptake (in words) [4, 11]",palmitoylation in presence of ZDHHC7 [5],palmitoylation in absence of ZDHHC7 (auto‐palmitoylation) [5],cellular uptake (in words) [6],cellular uptake (in words) [7],intracellular uptake pattern [8],infiltration of basement membrane (BM)‐covered spheroids [9]
"GLRKRLRKFRNK-NH2 [sC18*, cell‐penetrating peptide (CPP) sC18*, origin CAP18, control peptide, reference compound]",not toxic,> 100,not toxic,not toxic,–,–,–,–,–,–,–,–
"GLRKRLRKFRNKEFDHHCPW-NH2 [DC‐4, CPP sC18* fused to the DHHC motif derived from ZDHHC5]",–,–,–,–,overall weaker uptake,internalized to less extent,only a minor peak of palmitoylated DC‐4,no auto‐palmitoylation,–,–,–,–
"GLRKRLRKFRNKRMDHHCPW-NH2 [DC‐11, CPP sC18* fused to the DHHC motif derived from ZDHHC21]",–,–,–,–,internalized to a higher extent compared to DC‐4,highest uptake,palmitoylated,auto‐palmitoylation,internalized to a higher extent compared to DC‐4,internalized to a higher extent compared to DC‐4,diffuse cytosolic pattern,–
"GLRKRLRKFRNKKMDHHAPW-NH2 [DA‐1, control peptide in which the cysteine of the DHHC motif of DC‐2 was exchanged by an alanine]",not toxic,> 100,not toxic,not toxic,–,–,–,–,–,–,–,did not further enter cells of the spheroid

# — PMC12117998, “First Steps toward the Design of Peptides that Influence the Intracellular Palmitoylation Machinery” (Chembiochem, 2025)
